In patent US8580955B2, “Purification method and production method for cellobiose” (Matsutani Chemical Industry Co., Ltd., priority 2005, dated 2013):
One block for each compound: values may come before it.

Key:
[1] = Solubility in water expressed as dissolution time; type: physicochemical; conditions: for Dissolution Time: 10 g in 100 mL deionized water at 25 °C with stirring
Method: The solubility (the rate of dissolution) of crystalline cellobiose in water may vary depending on the rates of the stereoisomers (the rates of the α- and β-anomers). For instance, when the cellobiose crystals are dissolved in water, the resulting solution is maintained at a high temperature falling within the range in which the solution is not boiled, preferably 80 to 95° C. for a time ranging from 0.5 to 2.0 hours and then the solution is dried while maintaining the same at that temperature, the ratio of the α-anomer is increased to thus give cellobiose powder improved in its solubility in water.
The cellobiose-containing sugar solution having a high content of cellobiose, prepared in Example 4 was concentrated to a solid content concentration of 20%, the sugar solution was then maintained at a temperature of 20° C., 60° C. or 80° C. for one hour and, immediately thereafter, the solution was dried in a spray dryer to thus give cellobiose powder. These powdery cellobiose products were inspected for the solubility in water and the distribution rate of anomers. In this respect, the distribution rate of anomers was determined using Gas Chromatograph GC14 available from Shimadzu Corporation which was equipped with a column: DB1701 (inner diameter: 0.25 mm; length: 30 m) available from J & W Company. More specifically, each sample (1.0 mg) was dissolved in 0.769 mL of pyridine, 0.077 mL of TMSC and 0.154 mL of HMDS were added to the resulting solution, the mixture was maintained at room temperature for one hour and then it was used in the gas chromatography analysis.

[2] = Determination of solubility of cellobiose (Karl Fisher moisture of supernatant); type: physicochemical; conditions: supernatant of 20% (w/v) solution after crystal formation, 100% minus moisture content
Method: There was prepared a 20% (w/v) solution of a commercially available cellobiose (manufactured by Wako Pure Chemical Co., Ltd.), the resulting solution was introduced into a thermostatic chamber maintained at a temperature ranging from 10 to 60° C. to thus form crystals of cellobiose, thereafter the content of water present in the supernatant was determined using a Karl Fisher moisture meter and then the solubility was calculated by subtracting the moisture content from 100%.

time required for the dissolution ([1]; 10 g sample in 100 mL deionized water at 25 °C with stirring, crystals): 12.5 min
SMILES: O=C[C@H](O)[C@@H](O)[C@H](O[C@@H]1O[C@H](CO)[C@@H](O)[C@H](O)[C@H]1O)[C@H](O)CO [Example 1, cellobiose]

Solubility of Cellobiose ([2]; 10 °C): 13.5% | Solubility of Cellobiose ([2]; 20 °C): 14.0% | Solubility of Cellobiose ([2]; 30 °C): 14.7% | Solubility of Cellobiose ([2]; 40 °C): 18.4% | Solubility of Cellobiose ([2]; 50 °C): 22.9% | Solubility of Cellobiose ([2]; 60 °C): 26.3%
SMILES: O=C[C@H](O)[C@@H](O)[C@H](O[C@@H]1O[C@H](CO)[C@@H](O)[C@H](O)[C@H]1O)[C@H](O)CO [Cellobiose, cellobiose]

Dissolution Time ([1]; powder spray-dried from sugar solution kept at 20 °C for one hour): 8.0 min | Dissolution Time ([1]; powder spray-dried from sugar solution kept at 60 °C for one hour): 4.0 min | Dissolution Time ([1]; powder spray-dried from sugar solution kept at 80 °C for one hour): 2.5 min
SMILES: O=C[C@H](O)[C@@H](O)[C@H](O[C@@H]1O[C@H](CO)[C@@H](O)[C@H](O)[C@H]1O)[C@H](O)CO [Example 5, cellobiose]
